# Like-named read-outs stand apart in the source and are kept apart here.
# Assays:
# [1] = target: T1, SARS-CoV-2 main protease (Mpro) (Severe acute respiratory syndrome coronavirus 2, UniProt P0DTD1); conditions: 1 mM medicine, relative to control without small molecule
# [2] = tested on: SARS-CoV-2 in A549/ACE2 cells; assay type: cell-based; conditions: 6 repeats
# [3] = tested on: SARS-CoV-2 in Vero E6 cells; assay type: cell-based
# [4] = tested on: Ebola virus; conditions: mouse, in vivo, 12 mg/kg; cited from earlier work
# [5] = tested on: SARS-CoV-2 in Vero E6 cells; test: microbe, parasite or virus in culture; assay type: cell-based; conditions: Severe acute respiratory syndrome coronavirus 2, Vero C1008, 72 h; read-out: EC50 in inhibiting SARS-CoV-2
# [6] = tested on: SARS-CoV-2 in A549/ACE2 cells; test: microbe, parasite or virus in culture; assay type: cell-based; conditions: Severe acute respiratory syndrome coronavirus 2, A549-ACE2, 96 h; read-out: EC50 in inhibiting SARS-CoV-2
# [7] = target: T1, SARS-CoV-2 main protease (Mpro); test: biochemical
# [8] = tested on: SARS-CoV-2 entry into mammalian cell hosts; conditions: cell-based study; read-out: EC50 in inhibiting the SARS-CoV-2 entry; cited from earlier work
smiles,measurement,setting,value
CN1CCN(CC(=O)N2c3ccccc3C(=O)Nc3cccnc32)CC1 [Pirenzepine],activation of Mpro,[1],> 15%
CC(C)COCC(CN(Cc1ccccc1)c1ccccc1)N1CCCC1 (centres unmarked) [Bepridil],SARS-CoV-2 induced CPE,"[2]; A549/ACE2, bepridil 6.25 µM",No CPE
same,SARS-CoV-2 induced CPE,"[2]; A549/ACE2, bepridil 12.5 µM",No CPE
same,SARS-CoV-2 induced CPE,"[2]; A549/ACE2, bepridil 25 µM",No CPE
same,SARS-CoV-2 induced CPE,"[2]; A549/ACE2, bepridil 50 µM",No CPE
same,SARS-CoV-2 induced CPE,[3],No CPE
same,SARS-CoV-2 induced CPE,"[3]; Vero E6, bepridil 6.25 µM, 6 repeats",No CPE
same,SARS-CoV-2 induced CPE,"[3]; Vero E6, bepridil 25 µM, 6 repeats",No CPE
same,protection from Ebola virus infections,[4],100%
same,EC50,[5],860 nM
same,EC50,[6],460 nM
CCOc1ccccc1OC(c1ccccc1)C1CNCCO1 (centres unmarked) [Reboxetine],activation of Mpro,[1],> 15%
CCN1CC(CCN2CCOCC2)C(c2ccccc2)(c2ccccc2)C1=O (centres unmarked) [Doxapram],activation of Mpro,[1],> 15%
CCOC(=O)/C=C/[C@H](C[C@@H]1CCNC1=O)NC(=O)[C@@H](CC(=O)[C@@H](NC(=O)c1cc(C)on1)C(C)C)Cc1ccc(F)cc1 [Rupintrivir],Hill slope,[7],1.4 ± 0.2
Cc1c(O)cccc1C(=O)N[C@@H](CSc1ccccc1)[C@H](O)CN1C[C@H]2CCCC[C@H]2C[C@H]1C(=O)NC(C)(C)C [Nelfinavir],EC50,[8],1000 nM
Cc1cccc(C)c1OCC(=O)N[C@@H](Cc1ccccc1)[C@@H](O)C[C@H](Cc1ccccc1)NC(=O)[C@H](C(C)C)N1CCCNC1=O [Lopinavir],IC50,"[7]; 50 nM Mpro, 10 µM Sub3, 20% DMSO, mean ± SE, triplicate",486000 ± 2000 nM
same,Hill slope,[7]; four-parameter variable slope fit of the IC50 curve,29.9 ± 2.4
